Entries after “also recorded” stand apart in the source; their conditions may differ. Where no end group is shown, it is not given here.

Data set [1] in a line: Blood analysis for in vivo clearance. Also noted: species or system mice. To be noted: blood samples 10 μL at 1, 3, 6 and 12 h after intravenous injection of Cy5.5-HA pep3; fluorescence (IVIS). The text has this: We used X-ray function of in vivo imaging machine, IVIS Lumina XRMS and performed X-ray imaging of the mice with Cy5.5-HA pep3. With x-ray images, we could observe the high fluorescence intensity at spine (Figure S5a). In additions, we compared its biodistribution in vivo to our Cy5.5-HA pep3 and E7 positive peptide after intravenous injection. […] In addition, we performed blood analysis to determine clearance of our peptide in vivo (Figure S6).
All animal studies were approved by the Institutional Review Board of the Catholic University of Korea (approval No. CUMC-2019-0003-01). BALB/c nude mice (4 weeks old, OrientBio, Seongnam city, Korea) and wild type C3H/HeN mice were used for in vivo imaging. Cy5.5-scramble peptide or Cy5.5-HAp peptide (5 mg/kg of peptide in 100 µL physiological saline, n = 3) were administered to the mice by a tail vein injection. […] All images were analyzed with Living Image 4.5 software (PerkinElmer Inc., Massachusetts, USA). […] The fluorescence intensity of […] in samples was measured by IVIS Lumina XRMS.
Figure S6. […] (a) Time-dependent fluorescence images of blood sample obtained from mice tail at 1, 2, 3, 6 and 12h after intravenous injection of Cy5.5-HA pep3. (b) Average fluorescence intensity graph of the blood samples in (a).

In data set [2] the test system is Saos-2 cells. In words: Cytotoxicity assay (WST-1) in Saos-2 cells. Type of data set: cell-based. The conditions noted are these: 1 nM to 100 μM, 24 h, 48 h and 72 h, WST-1, triplicates. How it is done: The biocompatibility of HA-pep3 is important for assessing the feasibility of its in vivo application. Therefore, we performed HA-pep3 cytotoxicity assessment in osteoblastic Saos-2 osteogenic cells for 24 h, 48 h and 72 h (Fig. 6a and Figure S3). The cell viability was measured using various concentrations of HA-pep3 ranging from 1 nM to 100 μM. […] Next, we analyzed HA-pep3 in vivo application feasibility. We used Cy5.5 dye with near-infrared wavelength for in vivo imaging, to minimize tissue adsorption. After Cy5.5 dye labeling, scrambled peptide and HA-pep3 were injected into the tail vein of nude mice. […] The fluorescence intensity in bone was about 3.32 folds higher for Cy5.5-HA-pep3 than for a scrambled sequence (Fig. 6d).
Saos-2 osteosarcoma osteogenic primary cell line was purchased from the Korean cell line bank. Cells were cultured in […] medium with L-glutamine (300 mg/L), 25 mM HEPES, and 25 mM NaHCO3 supplemented with 10% heat-inactivated fetal bovine serum (FBS), 100 U/mL penicillin, and 100 μg/mL streptomycin. The cell lines were cultured at 37 °C and up to 5% CO2 in humidified atmosphere. All reagents and cell culture media were purchased from the WELGENE Company, South Korea. HA-pep3 cytotoxicity was examined using WST-1 assay. […] Finally, the absorbance was measured at 450 nm using a microplate spectrophotometer (Tecan Infinite 200). […]
A general note: Tetrazolium assays rely on reduction of a dye to a coloured formazan, in cell work by metabolically active cells.

For the sequence KNFQSRSH [HA-pep3], the clearance from blood result in data set [1] is on record as “disappeared in blood after 12 h”. Moreover, the “cytotoxicity (cell viability)” value in data set [2] is recorded as “no cytotoxicity; also recorded: did not show any cytotoxicity up to 100 μM”.

These data come from PMC7324617, “Selection and identification of a novel bone-targeting peptide for biomedical imaging of bone” (Scientific Reports, 2020).
